Assay [1] can be described thus: Inhibition of EGFR del19/T790M/C797S triple mutant in mouse BAF3 cells assessed as reduction in cell proliferation incubated for 3 days by celltiter-glo assay. Format: cell-based. The conditions noted are these: BaF3, 72 h.
The nature of assay [2]: Inhibition of wild type EGFR in mouse BAF3 cells assessed as reduction in cell proliferation incubated for 3 days by celltiter-glo assay. The format is cell-based. The conditions noted are these: BaF3, 72 h.
Assay [3] is described as follows: Inhibition of AKT phosphorylation in human A-431 cells harboring wild type EGFR incubated for 6 hrs by Western blot analysis. Format: cell-based. The conditions noted are these: A-431, 6 h.
In a further assay the test system is HCC827. The assay is described as follows: Antiproliferative activity against human HCC827 cells harboring EGFR Del19 mutant incubated for 72 hrs by SRB assay. The conditions noted are these: HCC827, 72 h. Format: functional, cell-based.
Assay [4] is described as follows: Inhibition of ERK phosphorylation in human A-431 cells harboring wild type EGFR incubated for 6 hrs by Western blot analysis. The format is cell-based. The conditions noted are these: A-431, 6 h.
Assay [5] has as its system NCI-H1975. The assay is described as follows: Antiproliferative activity against human NCI-H1975 cells harboring EGFR L858R/T790M mutant incubated for 72 hrs by SRB assay. The format is functional, cell-based. The conditions noted are these: NCI-H1975, 72 h.
The subject of assay [6] is NCI-H1975. In words: Antiproliferative activity against human NCI-H1975 cells harboring EGFR L858R/T790M/C797S mutant incubated for 72 hrs by SRB assay. The format is functional, cell-based. The settings on record: NCI-H1975, 72 h.
The subject of another assay is PC-9. The assay is described as follows: Antiproliferative activity against human PC-9 cells harboring EGFR Del19/T790M/C797S mutant incubated for 72 hrs by SRB assay. The settings on record: PC-9, 72 h. The format is functional, cell-based.
Assay [7] can be described thus: Inhibition of ERK phosphorylation in human PC-9 cells harboring Del19/T790M/C797S mutant incubated for 6 hrs by Western blot analysis. Format: cell-based. The conditions noted are these: PC-9, 6 h.
In the next assay the test system is A-431. The assay is described as follows: Antiproliferative activity against human A-431 cells harboring wild type EGFR incubated for 72 hrs by SRB assay. The settings on record: A-431, 72 h. Format: functional, cell-based.
Assay [8] is described as follows: Inhibition of AKT phosphorylation in human PC-9 cells harboring Del19/T790M/C797S mutant incubated for 6 hrs by Western blot analysis. Format: cell-based. The settings on record: PC-9, 6 h.
For assay [9], the target named is Epidermal growth factor receptor (Homo sapiens, UniProt P00533, C797S/L858R/T790M). In words: Inhibition of EGFR L858R/T790M/C797S triple mutant (unknown origin) in presence of ATP by FRET assay.
Sequence of Epidermal growth factor receptor (Homo sapiens, UniProt P00533, C797S/L858R/T790M) (P00533 25-1210 T790M/C797S/L858R limits assumed): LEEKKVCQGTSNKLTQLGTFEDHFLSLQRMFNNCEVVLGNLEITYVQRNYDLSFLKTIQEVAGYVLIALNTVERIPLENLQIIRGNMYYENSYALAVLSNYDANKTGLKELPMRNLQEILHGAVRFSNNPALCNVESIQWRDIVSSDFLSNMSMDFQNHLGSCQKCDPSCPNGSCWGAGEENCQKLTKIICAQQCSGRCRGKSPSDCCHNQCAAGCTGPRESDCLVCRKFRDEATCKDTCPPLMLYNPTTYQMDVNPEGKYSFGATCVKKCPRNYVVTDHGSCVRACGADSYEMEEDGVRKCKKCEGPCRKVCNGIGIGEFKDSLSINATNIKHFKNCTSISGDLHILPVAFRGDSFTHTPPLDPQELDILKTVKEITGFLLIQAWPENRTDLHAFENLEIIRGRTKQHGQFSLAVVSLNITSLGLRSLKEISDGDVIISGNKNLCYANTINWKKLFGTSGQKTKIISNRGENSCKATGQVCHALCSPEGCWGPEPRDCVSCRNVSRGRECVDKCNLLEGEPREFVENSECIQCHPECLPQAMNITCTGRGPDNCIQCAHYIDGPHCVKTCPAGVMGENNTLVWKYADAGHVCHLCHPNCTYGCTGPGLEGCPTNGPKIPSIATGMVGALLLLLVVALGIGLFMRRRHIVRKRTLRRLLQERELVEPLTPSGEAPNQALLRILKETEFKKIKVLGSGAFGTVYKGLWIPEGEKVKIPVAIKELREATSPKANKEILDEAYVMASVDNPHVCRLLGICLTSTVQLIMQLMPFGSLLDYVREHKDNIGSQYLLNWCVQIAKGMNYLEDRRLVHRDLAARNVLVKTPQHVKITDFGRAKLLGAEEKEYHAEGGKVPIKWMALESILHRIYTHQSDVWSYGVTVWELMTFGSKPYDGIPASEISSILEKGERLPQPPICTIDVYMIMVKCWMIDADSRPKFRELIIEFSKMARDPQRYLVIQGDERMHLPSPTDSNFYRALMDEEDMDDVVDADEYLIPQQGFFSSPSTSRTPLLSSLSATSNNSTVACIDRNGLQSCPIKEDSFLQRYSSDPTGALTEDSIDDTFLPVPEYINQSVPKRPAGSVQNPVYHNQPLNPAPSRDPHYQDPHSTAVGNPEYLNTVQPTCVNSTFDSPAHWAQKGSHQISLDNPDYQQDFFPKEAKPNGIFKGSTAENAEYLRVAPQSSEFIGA
Assay [10] concerns the target Epidermal growth factor receptor (Homo sapiens, UniProt P00533, C797S/EX19DEL/T790M). The assay is described as follows: Inhibition of EGFR del19/T790M/C797S triple mutant (unknown origin) in presence of ATP by FRET assay.
The target of assay [11] is Epidermal growth factor receptor (Homo sapiens, UniProt P00533). In words: Inhibition of wild type EGFR (unknown origin) in presence of ATP by FRET assay.
Sequence of Epidermal growth factor receptor (Homo sapiens, UniProt P00533) (P00533 whole entry): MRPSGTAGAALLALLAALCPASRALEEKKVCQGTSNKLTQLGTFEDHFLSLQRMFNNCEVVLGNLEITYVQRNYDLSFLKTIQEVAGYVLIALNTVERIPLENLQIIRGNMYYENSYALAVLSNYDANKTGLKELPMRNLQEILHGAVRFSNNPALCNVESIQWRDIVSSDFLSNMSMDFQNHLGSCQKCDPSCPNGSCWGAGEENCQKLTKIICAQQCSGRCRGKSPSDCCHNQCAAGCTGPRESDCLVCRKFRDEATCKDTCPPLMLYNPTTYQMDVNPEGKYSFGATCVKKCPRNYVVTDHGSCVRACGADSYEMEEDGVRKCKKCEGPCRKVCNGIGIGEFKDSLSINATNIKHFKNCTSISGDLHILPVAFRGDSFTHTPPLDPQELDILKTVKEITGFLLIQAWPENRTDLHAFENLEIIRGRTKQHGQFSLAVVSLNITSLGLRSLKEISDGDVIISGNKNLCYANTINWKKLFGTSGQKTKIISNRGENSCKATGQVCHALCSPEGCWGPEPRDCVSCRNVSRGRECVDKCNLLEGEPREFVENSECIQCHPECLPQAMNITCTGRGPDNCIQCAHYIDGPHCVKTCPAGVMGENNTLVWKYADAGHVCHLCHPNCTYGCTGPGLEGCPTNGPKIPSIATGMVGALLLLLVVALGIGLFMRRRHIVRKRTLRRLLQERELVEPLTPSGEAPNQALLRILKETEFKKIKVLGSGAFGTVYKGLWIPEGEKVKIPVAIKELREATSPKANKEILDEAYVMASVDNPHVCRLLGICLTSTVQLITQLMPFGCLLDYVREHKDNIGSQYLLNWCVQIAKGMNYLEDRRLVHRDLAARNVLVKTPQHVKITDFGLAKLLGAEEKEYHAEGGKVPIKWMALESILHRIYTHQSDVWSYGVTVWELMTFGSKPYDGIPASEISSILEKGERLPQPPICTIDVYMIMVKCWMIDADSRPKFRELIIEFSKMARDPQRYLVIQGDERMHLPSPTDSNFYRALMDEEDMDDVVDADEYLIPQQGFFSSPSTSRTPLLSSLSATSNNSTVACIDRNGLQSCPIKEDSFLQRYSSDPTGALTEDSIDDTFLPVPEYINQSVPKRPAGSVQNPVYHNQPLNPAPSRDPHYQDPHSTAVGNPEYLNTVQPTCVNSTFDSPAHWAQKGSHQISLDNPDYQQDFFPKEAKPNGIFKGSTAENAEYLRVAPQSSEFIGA

The values below come from ChEMBL document CHEMBL5634119, “Design and synthesis of 4th generation EGFR inhibitors against human triple (Del19/T790M/C797S) mutation” (Eur J Med Chem, 2023).

Sequence of Epidermal growth factor receptor (Homo sapiens, UniProt P00533, C797S/EX19DEL/T790M) (P00533 whole entry, looked up, stated change not applied): as the sequence (P00533 whole entry) above

Turning to `CCCN1CCN(c2ccc(Nc3nc(Nc4ccccc4N(C)S(C)(=O)=O)c4cc[nH]c4n3)cc2F)CC1`, the 50% inhibitory concentration (IC50) in [1] turned out to be 142 nM; in assay [2], 687 nM.
For `CN(c1ccccc1Nc1nc(Nc2ccc(N3CCC(N4CCN(C5CC5)CC4)CC3)c(F)c2)nc2[nH]ccc12)S(C)(=O)=O` the same measures were 213 nM and 815 nM.
In the case of `COc1cc(N2CCN(C)CC2)ccc1Nc1nc(Nc2ccccc2N(C)S(C)(=O)=O)c2cc[nH]c2n1`, the IC50 in assay [1] turned out to be 329 nM; in assay [2] it was 3170 nM.
For `CCN(c1ccccc1Nc1nc(Nc2ccc(N3CCN(C)CC3)c(F)c2)nc2[nH]ccc12)S(C)(=O)=O` the same measures were 36.6 nM and 203 nM.
The like results for `CN(c1ccccc1Nc1nc(Nc2ccc(N3CCCCC3)cc2)nc2[nH]ccc12)S(C)(=O)=O` were, in that order, 566 nM and 1240 nM.
For `CCCN1CCN(C2CCN(c3ccc(Nc4nc(Nc5ccccc5N(C)S(C)(=O)=O)c5cc[nH]c5n4)cc3F)CC2)CC1` the same measures were 84.2 nM and 754 nM.
In the case of `CN1CCN(c2ccc(Nc3nc(Nc4ccccc4N(C)S(=O)(=O)C4CC4)c4cc[nH]c4n3)cc2F)CC1`, the IC50 in [1] stood at 29.6 nM; in assay [2], 214 nM.
For `COc1cc(Nc2nc(Nc3ccccc3N(C)S(C)(=O)=O)c3cc[nH]c3n2)ccc1N1CCN(C)CC1` the same measures were 36.7 nM and 41.4 nM.
The like results for `CC(C)N1CCN(C2CCN(c3ccc(Nc4nc(Nc5ccccc5N(C)S(C)(=O)=O)c5cc[nH]c5n4)cc3F)CC2)CC1` were, in that order, 82.4 nM and 620 nM.
Turning to `COc1cc(N2CCC(N3CCN(C)CC3)CC2)ccc1Nc1ncc(Cl)c(Nc2ccccc2P(C)(C)=O)n1` [BRIGATINIB], the IC50 in assay [3] came to 3330 nM; with HCC827, 282 nM; in [4] it was 5830 nM; in the assay with NCI-H1975 [5], 380 nM; in the assay on NCI-H1975 [6], 1130 nM; in assay [1], 227 nM. The IC50 in [2] was 782 nM; in the assay with PC-9, 838 nM; in assay [7] it was 3730 nM; in the assay on A-431, 540 nM; in assay [8] it was 984 nM.
Take `CC(C)S(=O)(=O)N(C)c1ccccc1Nc1nc(Nc2ccc(N3CCN(C)CC3)c(F)c2)nc2[nH]ccc12`: the half-maximal inhibitory concentration (IC50) was determined as 49 nM in [1] and 185 nM in assay [2].
The like results for `CCS(=O)(=O)N(C)c1ccccc1Nc1nc(Nc2ccc(N3CCN(C)CC3)c(F)c2)nc2[nH]ccc12` were, in that order, 16.4 nM and 238 nM.
`CN1CCN(C2CCN(c3ccc(Nc4nc(Nc5ccccc5N(C)S(C)(=O)=O)c5cc[nH]c5n4)cc3F)CC2)CC1`: the half-inhibitory concentration (IC50) in [9] was determined as 4.9 nM; in the assay with HCC827, 370 nM; with NCI-H1975 [5], 211 nM; in assay [10], 4 nM; in assay [11] it was 4580 nM; in the assay with NCI-H1975 [6] it was 196 nM. For the same compound, the IC50 worked out at 11.4 nM in assay [1], 254 nM in assay [2], 262 nM with PC-9 and 317 nM in the assay on A-431.
On to `C=CC(=O)Nc1cc(Nc2nccc(-c3cn(C)c4ccccc34)n2)c(OC)cc1N(C)CCN(C)C` [OSIMERTINIB], for which the values for the IC50 in assay [1] and in [2] were 1240 nM and 13.5 nM, respectively.
For `CN(c1ccccc1Nc1nc(Nc2ccc(N3CCCCC3)c(F)c2)nc2[nH]ccc12)S(C)(=O)=O` the same measures were 741 nM and 739 nM.
The like results for `CN(c1ccccc1Nc1nc(Nc2ccc(N3CCN(C(=O)OC(C)(C)C)CC3)c(F)c2)nc2[nH]ccc12)S(C)(=O)=O` were, in that order, 426 nM and 2400 nM.
For `CN1CCN(c2ccc(Nc3nc(Nc4ccccc4N(C)S(C)(=O)=O)c4cc[nH]c4n3)cc2F)CC1`, the half-inhibitory concentration (IC50) worked out at 20.2 nM in assay [9]; 230 nM with HCC827; 185 nM in the assay with NCI-H1975 [5]; 4 nM in assay [10]; 1530 nM in [11]; 289 nM in the assay with NCI-H1975 [6]. The IC50 in assay [1] turned out to be 22.5 nM; in assay [2] it was 267 nM; with PC-9, 208 nM; with A-431, 263 nM.
With `Cc1cc(Nc2nc(Nc3ccccc3N(C)S(C)(=O)=O)c3cc[nH]c3n2)ccc1N1CCN(C)CC1`, the IC50 came to 30.8 nM in [1] and 41.7 nM in [2].
For `CN(c1ccccc1Nc1nc(Nc2ccc(N3CCN(C4CC4)CC3)c(F)c2)nc2[nH]ccc12)S(C)(=O)=O` the same measures were 383 nM and 790 nM.
For `CN1CCN(c2ccc(Nc3nc(Nc4ccccc4N(C4CC4)S(C)(=O)=O)c4cc[nH]c4n3)cc2F)CC1` the same measures were 55.9 nM and 273 nM.
For `CN1CCN(c2ccc(Nc3nc(Nc4ccccc4N(C)S(C)(=O)=O)c4cc[nH]c4n3)c(F)c2)CC1` the same measures were 157 nM and 202 nM.
`CC(C)N1CCN(c2ccc(Nc3nc(Nc4ccccc4N(C)S(C)(=O)=O)c4cc[nH]c4n3)cc2F)CC1`: the IC50 stood at 157 nM in assay [1] and 670 nM in assay [2].
For `CN1CCN(c2ccc(Nc3nc(Nc4ccccc4NS(C)(=O)=O)c4cc[nH]c4n3)cc2F)CC1` the same measures were 125 nM and 2640 nM.
Take `CN1CCN(c2ccc(Nc3nc(Nc4ccccc4N(C)S(C)(=O)=O)c4cc[nH]c4n3)cc2Cl)CC1`: the IC50 is 53.8 nM in assay [1] and 47.4 nM in [2].
The like results for `CC(C)N(c1ccccc1Nc1nc(Nc2ccc(N3CCN(C)CC3)c(F)c2)nc2[nH]ccc12)S(C)(=O)=O` were, in that order, 71.2 nM and 307 nM.
Turning to `CN1CCN(c2ccc(Nc3nc(Nc4ccccc4N(C)S(C)(=O)=O)c4cc[nH]c4n3)cc2)CC1`, the IC50 in assay [1] came out at 28.4 nM; in assay [2], 120 nM.
